Legend:
A/J mice [1] = assay: Murine model of asthma with 4 weekly OVA provocations (days 14, 21, 28, 35), interventional treatment; format: in vivo; details: LASSBio-448 100 mg/Kg oral
Method: Sensitization was performed by means of a subcutaneous injection of 50 μg ovalbumin (OVA) (grade V; Sigma-Aldrich, St. Louis, MO) adsorbed to 5 mg of Al(OH)3 in 0.2 mL of sterile 0.9% NaCl (saline) at days 0 and 14. Intranasal OVA provocations (25 μg /25 μL saline) were performed at 19 and 20 days post-sensitization under isofluorane volatile anaesthesia (Cristalia, São Paulo, Brazil). Alternatively, sensitization as described above were done at days 0 and 7, while the OVA provocations were carried out at days 14, 21, 28 and 35 [39]. Negative control groups were represented by sensitized mice in which allergen was replaced by saline as a challenge. Treatments were done orally 1 h before provocations. Test compounds were dissolved in saline containing 0.2% Tween 80. All solutions were freshly prepared immediately before use. Analyses were performed 24 h after the last provocation.
Airflow and transpulmonary pressure were recorded with a Buxco pulmonary mechanics processing system (Buxco Electronics, Sharon, CT), which calculated resistance (cmH2O.s/ml) and dynamic lung compliance (mL/cmH2O) in each breath cycle. Elastance was calculated as the inverse of compliance values. Mice were anesthetized with nembutal (60 mg/kg), and the neuromuscular activity was blocked with bromide pancuronium (1 mg/kg). Animals were allowed to stabilize for 5 min and increasing concentrations of methacholine (3–27 mg/mL) were aerosolized for 5 min each. Baseline pulmonary parameters were assessed with aerosolized phosphate buffer solution (PBS).
The EPO activity present in lung tissue was determined with a colorimetric assay as described by Strath et al. (1985), with minor modifications. Briefly, the lungs were cannulated and perfused with saline/EDTA (20 mM). Then, lung samples were homogenized in buffer solution containing 0.5% HBSS (Hank´s balanced solution, pH 7.4; Sigma Chemical Co.) using a tissue homogenizer (T25 ultra-Tirrax). Samples were centrifuged at 1300 xg for 10 min at 4°C. Red blood cells were removed by hypotonic and hypertonic lysis. The suspended cells were then centrifuged again at 1300 xg for 10 min at 4°C. The pellet was then suspended in a solution of HBSS containing 0.5% of HTAB (hexadecyltrimethylamonium bromide; Sigma Chemical Co.) (pH 7.4). This suspension was subjected to heat shock for lysing the cells in three cycles freeze/thawed. At the end, the supernatants were collected, centrifuged at 12000 rpm for 15 min at 4°C and assayed spectrophotometrically for EPO determination. Fifty μl of the samples were placed, and then 50 μl of the substrate (1.5 mM o-phenylenediamine and 6.6 mM hydrogen peroxide in 0.05 mM Tris-HCl buffer, pH 8.0) was added and, after a 30 min incubation at room temperature, 50 μl of H2SO4 (4M) was added to stop the reaction. The optical density reading was performed on the SpectraMax M5 spectrophotometer (Molecular Devices) at a wavelength of 492 nm.
Right lungs tissue samples from saline- and OVA-exposed mice were homogenized in PBS containing 0.05% Triton X-100 and a protease inhibitor cocktail (Complete®, Hoffmann-La Roche Ltd, Basel, Switzerland). After centrifugation at 13000xg for 10 min and 4°C, the levels of IL-13, IL-5, IL-4 and eotaxin-2 were quantified in the supernatant, using commercially available ELISA kits (DuoSet; R&D Systems, Minneapolis, MN, USA). The results were expressed as picograms of cytokine per right lung.

A/J mice [2] = assay: Duration of xylazine/ketamine anesthesia (behavioral correlate of emesis); format: in vivo
Method: This assessment was carried out as previously reported. […] The animals were placed in dorsal position and their spontaneous return to the prone position was used as an endpoint to determine anesthesia duration.

PDE4A = target: T1, PDE4A (Homo sapiens, UniProt P27815); assay: PDE4A inhibition, IMAP fluorescence polarization protocol; format: biochemical; details: 1 μM; mean ± SEM, 3 experiments
T1 construct: purchased MDS PHARMA
Method: (§1) The enzymatic reactions were carried at room temperature in a 96-well black plate by co-incubating 25 μL of 200 nM FAM-cAMP (R7513), 5 μL of putative inhibitory compounds and 20 μL of the PDE4 isoform dissolved in assay buffer (R7364) for 1 h. All enzymes were obtained from human recombinant sources (MDS PHARMA), whereas the other reagents were purchased from Molecular Devices. […] PDE4 inhibitors were dissolved in dimethyl sulfoxide (DMSO) at a final concentration of 0.1%.
(§2) The inhibitory activities of the new sulfonamide derivatives were evaluated for their selectivity against the four isoforms of human PDE4, i.e. PDE4A, PDE4B, PDE4C, and PDE4D, using an IMAP-FP protocol.

PDE4B = target: T2, PDE4B (Homo sapiens, UniProt Q07343); assay: PDE4B inhibition, IMAP fluorescence polarization protocol; format: biochemical; details: 1 μM, mean ± SEM, 3 experiments; for inhibition at 1 µM: read-out: PDE4B1 inhibition
T2 construct: purchased MDS PHARMA
Method: as §1, §2

PDE4D = target: T3, PDE4D (Homo sapiens, UniProt Q08499); assay: PDE4D inhibition, IMAP fluorescence polarization protocol; format: biochemical; details: 1 μM, mean ± SEM, 3 experiments; for inhibition at 1 µM: read-out: PDE4D3 inhibition
T3 construct: purchased MDS PHARMA
Method: as §1, §2

PDE4C = target: T4, PDE4C (Homo sapiens, UniProt Q08493); assay: PDE4C inhibition, IMAP fluorescence polarization protocol; format: biochemical; details: 1 μM; mean ± SEM, 3 experiments
T4 construct: purchased MDS PHARMA
Method: as §1, §2

[3] = rolipram 10 mg/Kg oral, right lung, 24 h after last challenge, vs vehicle, Fig 8

T2 sequence (Q07343 whole entry): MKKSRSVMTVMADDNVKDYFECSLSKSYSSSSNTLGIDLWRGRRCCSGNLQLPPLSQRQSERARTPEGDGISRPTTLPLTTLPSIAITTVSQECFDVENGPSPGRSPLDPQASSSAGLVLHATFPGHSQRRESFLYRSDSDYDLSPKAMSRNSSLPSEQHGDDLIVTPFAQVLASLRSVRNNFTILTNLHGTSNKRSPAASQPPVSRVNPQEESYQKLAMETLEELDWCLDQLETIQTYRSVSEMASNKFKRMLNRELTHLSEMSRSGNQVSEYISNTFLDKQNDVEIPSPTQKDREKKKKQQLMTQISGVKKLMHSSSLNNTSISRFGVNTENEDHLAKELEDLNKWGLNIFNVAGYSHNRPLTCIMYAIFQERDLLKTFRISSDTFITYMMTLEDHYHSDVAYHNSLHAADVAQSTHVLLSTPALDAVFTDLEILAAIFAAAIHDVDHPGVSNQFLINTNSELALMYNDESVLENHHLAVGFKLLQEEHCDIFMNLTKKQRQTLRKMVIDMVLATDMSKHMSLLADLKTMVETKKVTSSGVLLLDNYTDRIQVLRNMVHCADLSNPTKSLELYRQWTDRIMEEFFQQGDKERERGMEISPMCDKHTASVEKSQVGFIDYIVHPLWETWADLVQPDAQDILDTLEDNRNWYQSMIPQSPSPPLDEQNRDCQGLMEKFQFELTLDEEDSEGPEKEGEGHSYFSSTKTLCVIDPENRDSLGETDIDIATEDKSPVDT
T1 sequence (P27815 1-647 isoform P27815-4): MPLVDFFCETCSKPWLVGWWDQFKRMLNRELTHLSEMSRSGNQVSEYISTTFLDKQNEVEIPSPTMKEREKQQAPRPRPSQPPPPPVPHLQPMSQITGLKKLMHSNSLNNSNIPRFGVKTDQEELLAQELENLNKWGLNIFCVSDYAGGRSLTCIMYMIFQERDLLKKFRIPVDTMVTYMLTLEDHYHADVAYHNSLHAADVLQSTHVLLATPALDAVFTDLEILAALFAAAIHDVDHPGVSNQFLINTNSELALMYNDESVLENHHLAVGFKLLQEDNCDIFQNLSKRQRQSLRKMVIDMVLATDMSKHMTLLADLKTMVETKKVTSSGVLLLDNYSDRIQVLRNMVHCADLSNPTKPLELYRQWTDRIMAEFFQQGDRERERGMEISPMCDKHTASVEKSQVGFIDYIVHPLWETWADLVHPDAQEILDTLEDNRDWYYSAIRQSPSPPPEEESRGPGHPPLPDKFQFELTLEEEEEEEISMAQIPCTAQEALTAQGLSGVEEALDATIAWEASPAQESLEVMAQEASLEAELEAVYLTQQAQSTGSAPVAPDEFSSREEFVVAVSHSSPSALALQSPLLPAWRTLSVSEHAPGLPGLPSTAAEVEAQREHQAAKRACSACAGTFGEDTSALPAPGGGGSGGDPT
T3 sequence (Q08499 1-673 isoform Q08499-2): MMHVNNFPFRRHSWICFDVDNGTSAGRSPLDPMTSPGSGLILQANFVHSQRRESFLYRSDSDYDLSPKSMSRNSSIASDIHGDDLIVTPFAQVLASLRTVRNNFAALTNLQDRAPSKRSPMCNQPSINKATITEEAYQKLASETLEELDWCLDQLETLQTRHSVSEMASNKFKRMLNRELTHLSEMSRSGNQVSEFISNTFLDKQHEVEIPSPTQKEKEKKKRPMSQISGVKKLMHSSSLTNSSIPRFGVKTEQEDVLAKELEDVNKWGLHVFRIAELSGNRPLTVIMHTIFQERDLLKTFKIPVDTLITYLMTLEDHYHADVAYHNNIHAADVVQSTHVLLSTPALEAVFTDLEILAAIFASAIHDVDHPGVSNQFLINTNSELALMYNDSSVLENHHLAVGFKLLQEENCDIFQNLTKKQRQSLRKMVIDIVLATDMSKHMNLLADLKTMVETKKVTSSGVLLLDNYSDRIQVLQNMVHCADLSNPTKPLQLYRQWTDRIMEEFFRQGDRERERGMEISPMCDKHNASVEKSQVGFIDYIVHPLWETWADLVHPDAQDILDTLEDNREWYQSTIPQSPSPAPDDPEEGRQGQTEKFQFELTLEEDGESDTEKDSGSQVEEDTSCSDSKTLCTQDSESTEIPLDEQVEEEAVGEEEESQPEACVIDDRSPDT
T4 sequence (Q08493 whole entry): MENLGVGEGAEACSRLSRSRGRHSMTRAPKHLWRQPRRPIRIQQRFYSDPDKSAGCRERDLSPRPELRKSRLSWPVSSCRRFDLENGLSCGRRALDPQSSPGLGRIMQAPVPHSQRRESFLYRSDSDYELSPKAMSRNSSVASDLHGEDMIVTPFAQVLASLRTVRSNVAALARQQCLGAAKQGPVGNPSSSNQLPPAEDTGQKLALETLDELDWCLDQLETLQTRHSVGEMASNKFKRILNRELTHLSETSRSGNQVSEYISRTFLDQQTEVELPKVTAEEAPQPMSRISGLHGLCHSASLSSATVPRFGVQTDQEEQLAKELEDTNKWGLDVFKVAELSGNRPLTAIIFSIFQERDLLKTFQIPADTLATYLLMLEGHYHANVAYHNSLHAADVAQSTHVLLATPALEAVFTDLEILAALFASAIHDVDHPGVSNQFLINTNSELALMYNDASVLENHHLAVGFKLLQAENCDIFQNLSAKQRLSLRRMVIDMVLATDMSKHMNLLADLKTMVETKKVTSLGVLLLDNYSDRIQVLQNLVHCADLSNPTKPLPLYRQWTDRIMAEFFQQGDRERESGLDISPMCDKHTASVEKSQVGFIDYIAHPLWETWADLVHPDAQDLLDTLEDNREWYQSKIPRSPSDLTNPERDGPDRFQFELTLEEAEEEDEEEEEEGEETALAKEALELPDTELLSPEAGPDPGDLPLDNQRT

COc1ccc(C2CNC(=O)C2)cc1OC1CCCC1 (stereo not shown) [1 (Rolipram), rolipram, reference compound]
airway hyper-reactivity to methacholine, airway resistance (A/J mice [1]; rolipram 10 mg/Kg oral, Fig 7A): equally effective in inhibiting | airway hyper-reactivity to methacholine, lung elastance (A/J mice [1]; rolipram 10 mg/Kg oral, Fig 7B): equally effective in inhibiting | IL-4 level in lung tissue (A/J mice [1]; [3]): reduction in the levels | IL-5 level in lung tissue (A/J mice [1]; [3]): reduction in the levels | IL-13 level in lung tissue (A/J mice [1]; [3]): reduction in the levels | eotaxin-2 level in lung tissue (A/J mice [1]; [3]): reduction in the levels | allergen-induced eosinophil accumulation in the lung tissue (eosinophil peroxidase) (A/J mice [1]; rolipram 10 mg/kg oral, at third and fourth weeks of challenge, Fig 5): impair the progress | reduction of sleep time (duration of xylazine/ketamine anesthesia) (A/J mice [2]; 3.5 μmol/Kg oral): 30% | reduction of sleep time (duration of xylazine/ketamine anesthesia) (A/J mice [2]; 11 μmol/Kg oral): 38.5% | reduction of sleep time (duration of xylazine/ketamine anesthesia) (A/J mice [2]; 36 μmol/Kg oral): 40.8%

Cc1cc2c(cc1S(=O)(=O)NCCc1ccccc1)OCO2 [5 (LASSBio-964), 6-methyl-N-phenethylbenzo[d][1, 3]dioxole-5-sulfonamide]
PDE4A1A inhibition (PDE4A): Inactive | PDE4B1 inhibition (PDE4B): Inactive | PDE4D3 inhibition (PDE4D): only a marginal activity | inhibition at 1 µM (PDE4D): 33.5 ± 4.5% | melting point: 88 to 89 °C | inhibition at 1 µM (PDE4C): 3.9 ± 2.9%

COc1ccc(CCN(C)S(=O)(=O)c2cc3c(cc2C)OCO3)cc1OC [6b (LASSBio-959), N-(3,4-dimethoxyphenethyl)-N-6-dimethylbenzo[d][1, 3]dioxole-5-sulfonamide]
PDE4A1A inhibition (PDE4A): Inactive | PDE4B1 inhibition (PDE4B): Inactive | PDE4D3 inhibition (PDE4D): only a marginal activity | inhibition at 1 µM (PDE4D): 42.4 ± 3.5% | melting point: 92 to 94 °C | inhibition at 1 µM (PDE4C): 5.6 ± 1%

COc1ccc(CCN(Cc2ccccc2)S(=O)(=O)c2cc3c(cc2C)OCO3)cc1OC [6c (LASSBio-960), N-(3,4-dimethoxyphenethyl)-N-benzyl-6-methylbenzo[d][1, 3]dioxole-5-sulfonamide]
PDE4A1A inhibition (PDE4A): Inactive | PDE4B1 inhibition (PDE4B): Inactive | inhibition at 1 µM (PDE4D): 21.6 ± 4.5% | melting point: 119 to 121 °C | inhibition at 1 µM (PDE4C): 2 ± 0.8%

C=CCN(CCc1ccc(OC)c(OC)c1)S(=O)(=O)c1cc2c(cc1C)OCO2 [6d (LASSBio-961), N-(3,4-dimethoxyphenethyl)-N-allyl-6-methylbenzo[d][1, 3]dioxole-5-sulfonamide]
PDE4A1A inhibition (PDE4A): Inactive | PDE4B1 inhibition (PDE4B): Inactive | PDE4D3 inhibition (PDE4D): only a marginal activity | inhibition at 1 µM (PDE4D): 40.4 ± 4.5% | melting point: 74 to 76 °C | inhibition at 1 µM (PDE4C): 6.3 ± 4.1%

COc1ccc(CCN(C2CCCC2)S(=O)(=O)c2cc3c(cc2C)OCO3)cc1OC [6e (LASSBio-962), N-(3,4-dimethoxyphenethyl)-N-cyclopentyl-6-methylbenzo[d][1, 3]dioxole-5-sulfonamide]
PDE4A1A inhibition (PDE4A): Inactive | PDE4B1 inhibition (PDE4B): Inactive | inhibition at 1 µM (PDE4D): 23.6 ± 2.2% | inhibition at 1 µM (PDE4C): 7.6 ± 1.1%

COc1ccc(CCNS(=O)(=O)c2ccccc2)cc1OC [6f (LASSBio-965), N-(3,4-dimethoxyphenethyl)benzenesulfonamide]
PDE4A1A inhibition (PDE4A): Inactive | PDE4B1 inhibition (PDE4B): Inactive | inhibition at 1 µM (PDE4D): 19.3 ± 4% | melting point: 86 to 88 °C | inhibition at 1 µM (PDE4C): 9.7 ± 3.3%

COc1ccc(CCN(C)S(=O)(=O)c2ccccc2)cc1OC [6g (LASSBio-982), N-(3,4-dimethoxyphenethyl)-N-methylbenzenesulfonamide]
PDE4A1A inhibition (PDE4A): Inactive | PDE4B1 inhibition (PDE4B): Inactive | PDE4D3 inhibition (PDE4D): only a marginal activity | inhibition at 1 µM (PDE4D): 37.4 ± 3.9% | melting point: 67 to 68 °C | inhibition at 1 µM (PDE4C): 4.1%

COc1ccc(CCN(Cc2ccccc2)S(=O)(=O)c2ccccc2)cc1OC [6h (LASSBio-984), N-(3,4-dimethoxyphenethyl)-N-benzylbenzenesulfonamide]
PDE4A1A inhibition (PDE4A): Inactive | inhibition at 1 µM (PDE4B): 5 ± 0.6% | inhibition at 1 µM (PDE4D): 14.3 ± 5.4% | melting point: 82 to 84 °C | inhibition at 1 µM (PDE4C): 9.8 ± 1.7%

C=CCN(CCc1ccc(OC)c(OC)c1)S(=O)(=O)c1ccccc1 [6i (LASSBio-983), N-(3,4-dimethoxyphenethyl)-N-allylbenzenesulfonamide]
PDE4A1A inhibition (PDE4A): Inactive | PDE4B1 inhibition (PDE4B): Inactive | PDE4D3 inhibition (PDE4D): only a marginal activity | inhibition at 1 µM (PDE4D): 67.6 ± 2.6% | melting point: 64 to 65 °C | inhibition at 1 µM (PDE4C): 9.7 ± 0.8%

COc1ccc(CCNS(C)(=O)=O)cc1OC [6j (LASSBio-985), N-(3,4-dimethoxyphenethyl)methanesulfonamide]
PDE4A1A inhibition (PDE4A): Inactive | inhibition at 1 µM (PDE4B): 12.6 ± 2.1% | PDE4D3 inhibition (PDE4D): only a marginal activity | inhibition at 1 µM (PDE4D): 62.9 ± 3.8% | melting point: 73 to 74 °C | inhibition at 1 µM (PDE4C): 16.3 ± 1%

COc1ccc(CCN(C)S(C)(=O)=O)cc1OC [6k (LASSBio-1271), N-(3,4-dimethoxyphenethyl)-N-methylmethanesulfonamide]
PDE4A1A inhibition (PDE4A): Inactive | PDE4B1 inhibition (PDE4B): Inactive | PDE4D3 inhibition (PDE4D): Inactive | melting point: 48 to 49 °C | PDE4C inhibition (PDE4C): Inactive

— publication PMC5047629, “Synthesis, Pharmacological Profile and Docking Studies of New Sulfonamides Designed as Phosphodiesterase-4 Inhibitors” (PLoS ONE, 2016)
